Measurements from paper PMC11206396 (Chemical Science, 2024).
Read-outs that look alike come from different tables or passages of the source. Positions of bridges follow the written chain, without caps; N, C: chain ends. Residues, ends and D or L forms follow the SMILES beside them. Chains are numbered I, II in the order given. *: point of attachment. X5 = Cc1cc(NC(=O)CCC(=O)O)ccc1-c1cc(CN2CCN(CC(=O)O)CCN(CC(=O)O)CCN(CC(=O)O)CC2)nc(C(=O)*)c1; X2 = CC(=O)Nc1ccc(-c2cc(CN3CCN(CC(=O)O)CCN(CC(=O)O)CCN(CC(=O)O)CC3)nc(C(=O)*)c2)c(C)c1; X4 = Cc1cc(NC(=O)CCN)ccc1-c1cc(CN2CCN(CC(=O)O)CCN(CC(=O)O)CCN(CC(=O)O)CC2)nc(C(=O)*)c1; X1 = CC(=O)Nc1ccc(-c2cc(CN3CCN(CC(=O)O)CCN(CC(=O)O)CCN(CC(=O)O)CC3)nc(C(=O)*)c2)cc1; X3 = COc1ccc(-c2cc(CN3CCN(CC(=O)O)CCN(CC(=O)O)CCN(CC(=O)O)CC3)nc(C(=O)*)c2)c(C)c1

Tests used:
HeLa cells [1] = assay: Two-photon microscopy (2PM) imaging of live cells: internalization and cytosolic delivery; assay type: cell-based; conditions: for cytosolic delivery (diffuse Ln3+ emission): 10 μM; for cytosolic delivery (diffuse Ln3+ emission) / co-internalization of a Tb3+/Eu3+ probe mixture: 2P excitation 720 nm; for co-internalization of a Tb3+/Eu3+ probe mixture: 1 h, Tb probe 10 μM + dTAT[Eu·L-Ar-NHAc] 5 μM
HeLa cells [2] = assay: MTT proliferation assay (cytotoxicity)
MRC5 cells = assay: Two-photon microscopy (2PM) imaging of live cells: internalization and cytosolic delivery; assay type: cell-based; conditions: 1 h, 10 μM
Protocol: (§1) Fig. 7 2PM imaging (λex = 720 nm) of living HEK293T (A) and MRC5 (B) cells incubated 1 h with dTAT[Eu·L-Ar-NHAc] (10 μM) in RPMI medium. Top: DIC, emission recorded using a 465–680 nm bp filter and merge; Bottom: linear unmixing of autofluorescence (AF) and Eu^3+ emission and merge. Scale bars correspond to 10 μm. […]
(§2) dependence for each sample (Fig. S9), the incident power was adjusted to 35 mW to characterize the two-photon absorption spectra. Calibration of the 2P absorption spectra was performed at each excitation wavelength by comparison with that of fluorescein (10 µM, pH 11) as reference compound.[12]
(§3) General: HeLa, MRC5 and HEK293 cell lines were purchased from the ATCC and agreed by French ethic boards […]
(§4) Cell culture: HeLa cells were grown in RPMI medium supplemented with 10% fetal bovine serum (v/v) at 37°C in a 5% CO2 humidified atmosphere.
(§5) Peptides delivery in live cells: HeLa cells were seeded at 3´10^4 cells/well onto an 8-chamber Labtek-I coverglass system.
(§6) After 24 h, cells were washed three times with PBS. Cells were incubated with dTAT [Ln·L] (10 µM) in RPMI medium (without phenol red and without serum) or PBS at 37°C for 1 h. […]
(§7) Temporal Sampling Lifetime Imaging Microscopy (TSLIM) was used to record luminescence lifetime decay in cells (single pulsed excitation with the 7.56 μs temporal resolution).[13] […]

HEK293T cells = assay: as above; assay type: cell-based; conditions: 1 h, 10 μM
Protocol: as §1, §2, §3, §4, §5, §6, §7

[3] = live HeLa cells, 1 h incubation
[4] = read-out: IC50 (concentration causing a 50% reduction in proliferation), MTT proliferation assay, 2 h incubation

SMILES: Cc1cc(NC(=O)CCC(=O)O)ccc1-c1cc(CN2CCN(CC(=O)O)CCN(CC(=O)O)CCN(CC(=O)O)CC2)nc(C(=O)NCCCC[C@H](NC(=O)[C@@H](N)CSSC[C@H](N)C(=O)N[C@@H](CCCCNC(=O)c2cc(-c3ccc(NC(=O)CCC(=O)O)cc3C)cc(CN3CCN(CC(=O)O)CCN(CC(=O)O)CCN(CC(=O)O)CC3)n2)C(=O)N[C@@H](CCCNC(=N)N)C(=O)N[C@@H](CCCCN)C(=O)N[C@@H](CCCCN)C(=O)N[C@@H](CCCNC(=N)N)C(=O)N[C@@H](CCCNC(=N)N)C(=O)N[C@@H](CCC(N)=O)C(=O)N[C@@H](CCCNC(=N)N)C(=O)N[C@@H](CCCNC(=N)N)C(=O)N[C@@H](CCCNC(=N)N)C(=O)NCC(N)=O)C(=O)N[C@@H](CCCNC(=N)N)C(=O)N[C@@H](CCCCN)C(=O)N[C@@H](CCCCN)C(=O)N[C@@H](CCCNC(=N)N)C(=O)N[C@@H](CCCNC(=N)N)C(=O)N[C@@H](CCC(N)=O)C(=O)N[C@@H](CCCNC(=N)N)C(=O)N[C@@H](CCCNC(=N)N)C(=O)N[C@@H](CCCNC(=N)N)C(=O)NCC(N)=O)c1 [dTAT[Tb·L-^MeAr-NHSuc(−)]] (I: H-CK(X5)RKKRRQRRRG-NH2 / II: H-CK(X5)RKKRRQRRRG-NH2; disulfide I:1-II:1)
- cytosolic delivery (diffuse Ln3+ emission) (HeLa cells [1]; [3]): efficiently delivered to the cytosol

SMILES: CC(=O)Nc1ccc(-c2cc(CN3CCN(CC(=O)O)CCN(CC(=O)O)CCN(CC(=O)O)CC3)nc(C(=O)NCCCC[C@H](NC(=O)[C@@H](N)CSSC[C@H](N)C(=O)N[C@@H](CCCCNC(=O)c3cc(-c4ccc(NC(C)=O)cc4C)cc(CN4CCN(CC(=O)O)CCN(CC(=O)O)CCN(CC(=O)O)CC4)n3)C(=O)N[C@@H](CCCNC(=N)N)C(=O)N[C@@H](CCCCN)C(=O)N[C@@H](CCCCN)C(=O)N[C@@H](CCCNC(=N)N)C(=O)N[C@@H](CCCNC(=N)N)C(=O)N[C@@H](CCC(N)=O)C(=O)N[C@@H](CCCNC(=N)N)C(=O)N[C@@H](CCCNC(=N)N)C(=O)N[C@@H](CCCNC(=N)N)C(=O)NCC(N)=O)C(=O)N[C@@H](CCCNC(=N)N)C(=O)N[C@@H](CCCCN)C(=O)N[C@@H](CCCCN)C(=O)N[C@@H](CCCNC(=N)N)C(=O)N[C@@H](CCCNC(=N)N)C(=O)N[C@@H](CCC(N)=O)C(=O)N[C@@H](CCCNC(=N)N)C(=O)N[C@@H](CCCNC(=N)N)C(=O)N[C@@H](CCCNC(=N)N)C(=O)NCC(N)=O)c2)c(C)c1 [dTAT[Tb·L-^MeAr-NHAc]] (I: H-CK(X2)RKKRRQRRRG-NH2 / II: H-CK(X2)RKKRRQRRRG-NH2; disulfide I:1-II:1)
- cytosolic delivery (diffuse Ln3+ emission) (HeLa cells [1]; [3]): cytosolic delivery
- IC50 (HeLa cells [2]; [4]): 7.6 ± 1.6 µM
- IC50 (HeLa cells [2]; read-out: IC50 (concentration causing a 50% reduction in proliferation), MTT proliferation assay, 2 h incubation, listed as dTAT[Tb·L-^MeAr-HNAc]): < 10 µM

SMILES: Cc1cc(NC(=O)CCN)ccc1-c1cc(CN2CCN(CC(=O)O)CCN(CC(=O)O)CCN(CC(=O)O)CC2)nc(C(=O)NCCCC[C@H](NC(=O)[C@@H](N)CSSC[C@H](N)C(=O)N[C@@H](CCCCNC(=O)c2cc(-c3ccc(NC(=O)CCN)cc3C)cc(CN3CCN(CC(=O)O)CCN(CC(=O)O)CCN(CC(=O)O)CC3)n2)C(=O)N[C@@H](CCCNC(=N)N)C(=O)N[C@@H](CCCCN)C(=O)N[C@@H](CCCCN)C(=O)N[C@@H](CCCNC(=N)N)C(=O)N[C@@H](CCCNC(=N)N)C(=O)N[C@@H](CCC(N)=O)C(=O)N[C@@H](CCCNC(=N)N)C(=O)N[C@@H](CCCNC(=N)N)C(=O)N[C@@H](CCCNC(=N)N)C(=O)NCC(N)=O)C(=O)N[C@@H](CCCNC(=N)N)C(=O)N[C@@H](CCCCN)C(=O)N[C@@H](CCCCN)C(=O)N[C@@H](CCCNC(=N)N)C(=O)N[C@@H](CCCNC(=N)N)C(=O)N[C@@H](CCC(N)=O)C(=O)N[C@@H](CCCNC(=N)N)C(=O)N[C@@H](CCCNC(=N)N)C(=O)N[C@@H](CCCNC(=N)N)C(=O)NCC(N)=O)c1 [dTAT[Tb·L-^MeAr-NHβAla(+)]] (I: H-CK(X4)RKKRRQRRRG-NH2 / II: H-CK(X4)RKKRRQRRRG-NH2; disulfide I:1-II:1)
- co-internalization of a Tb3+/Eu3+ probe mixture (HeLa cells [1]; HeLa cells): co-internalized
- cytosolic delivery (diffuse Ln3+ emission) (HeLa cells [1]; [3]): efficiently delivered to the cytosol

SMILES: COc1ccc(-c2cc(CN3CCN(CC(=O)O)CCN(CC(=O)O)CCN(CC(=O)O)CC3)nc(C(=O)NCCCC[C@H](NC(=O)[C@@H](N)CSSC[C@H](N)C(=O)N[C@@H](CCCCNC(=O)c3cc(-c4ccc(OC)cc4C)cc(CN4CCN(CC(=O)O)CCN(CC(=O)O)CCN(CC(=O)O)CC4)n3)C(=O)N[C@@H](CCCNC(=N)N)C(=O)N[C@@H](CCCCN)C(=O)N[C@@H](CCCCN)C(=O)N[C@@H](CCCNC(=N)N)C(=O)N[C@@H](CCCNC(=N)N)C(=O)N[C@@H](CCC(N)=O)C(=O)N[C@@H](CCCNC(=N)N)C(=O)N[C@@H](CCCNC(=N)N)C(=O)N[C@@H](CCCNC(=N)N)C(=O)NCC(N)=O)C(=O)N[C@@H](CCCNC(=N)N)C(=O)N[C@@H](CCCCN)C(=O)N[C@@H](CCCCN)C(=O)N[C@@H](CCCNC(=N)N)C(=O)N[C@@H](CCCNC(=N)N)C(=O)N[C@@H](CCC(N)=O)C(=O)N[C@@H](CCCNC(=N)N)C(=O)N[C@@H](CCCNC(=N)N)C(=O)N[C@@H](CCCNC(=N)N)C(=O)NCC(N)=O)c2)c(C)c1 [dTAT[Tb·L-^MeAr-OMe]] (I: H-CK(X3)RKKRRQRRRG-NH2 / II: H-CK(X3)RKKRRQRRRG-NH2; disulfide I:1-II:1)
- cytosolic delivery (diffuse Ln3+ emission) (HeLa cells [1]; [3]): successful cytosolic delivery
- IC50 (HeLa cells [2]; [4]): 18 ± 3 µM

SMILES: CC(=O)Nc1ccc(-c2cc(CN3CCN(CC(=O)O)CCN(CC(=O)O)CCN(CC(=O)O)CC3)nc(C(=O)NCCCC[C@H](NC(=O)[C@@H](N)CSSC[C@H](N)C(=O)N[C@@H](CCCCNC(=O)c3cc(-c4ccc(NC(C)=O)cc4)cc(CN4CCN(CC(=O)O)CCN(CC(=O)O)CCN(CC(=O)O)CC4)n3)C(=O)N[C@@H](CCCNC(=N)N)C(=O)N[C@@H](CCCCN)C(=O)N[C@@H](CCCCN)C(=O)N[C@@H](CCCNC(=N)N)C(=O)N[C@@H](CCCNC(=N)N)C(=O)N[C@@H](CCC(N)=O)C(=O)N[C@@H](CCCNC(=N)N)C(=O)N[C@@H](CCCNC(=N)N)C(=O)N[C@@H](CCCNC(=N)N)C(=O)NCC(N)=O)C(=O)N[C@@H](CCCNC(=N)N)C(=O)N[C@@H](CCCCN)C(=O)N[C@@H](CCCCN)C(=O)N[C@@H](CCCNC(=N)N)C(=O)N[C@@H](CCCNC(=N)N)C(=O)N[C@@H](CCC(N)=O)C(=O)N[C@@H](CCCNC(=N)N)C(=O)N[C@@H](CCCNC(=N)N)C(=O)N[C@@H](CCCNC(=N)N)C(=O)NCC(N)=O)c2)cc1 [dTAT[Eu·L-Ar-NHAc]] (I: H-CK(X1)RKKRRQRRRG-NH2 / II: H-CK(X1)RKKRRQRRRG-NH2; disulfide I:1-II:1; N-terminus assumed)
- number of cells showing cytosolic staining (diffuse Eu3+ emission) (HeLa cells [1]; HeLa cells, 5 μM, 1 h incubation, over 6 hours after washing, determined visually): 34–38%
- co-internalization of a Tb3+/Eu3+ probe mixture (HeLa cells [1]; HeLa cells): co-internalized
- cell staining pattern at low concentration (HeLa cells [1]; live HeLa cells, 2.5 μM, 1 h incubation): only show punctate Eu^3+ around the nucleus
- cytosolic delivery (diffuse Ln3+ emission) (HeLa cells [1]; [3]): cytosolic delivery
- toxicity at the concentration used for 2PM (HeLa cells [2]; MTT assay, 10 μM): no toxicity
- cytosolic delivery (diffuse Eu3+ localization) (MRC5 cells): successful cytosolic delivery
- cytosolic delivery (diffuse Eu3+ localization) (HEK293T cells): successful cytosolic delivery
